Format in all cases: in vivo, Lewis rats
The subject of data set [1] is adherent leukocytes in retinal vessels. Briefly: Leukocyte adhesion to retinal vessels (Concanavalin A lectin staining). How it is done:
Male Lewis rats ranging from 6-8 weeks old (Charles River, Wilmington, Mass.) were used for these studies. To study the effects of AICAR pretreatment, AICAR and PBS (for placebo treatment) were delivered via intraperitoneal injection of AICAR (50 mg/kg or 100 mg/kg body weight; Sigma) diluted in 150 μl PBS or equal volume of PBS at 6 hours before and at the same time as LPS injection. Four experimental groups of rats were compared: (1) Normal: no treatment (2) AICAR: normal rats treated with AICAR 6 hours before examination; (3) LPS: EIU rats treated with PBS; (4) LPS+AICAR: EIU rats treated with AICAR. Two additional groups of rats were used to study the effects of AICAR (50 mg/kg) given either at the same time as LPS injection or at 6 hours after LPS injection. Inflammation in the posterior segment of the eye is seen in EIU with the adherence of recruited leukocytes to the retinal vascular endothelium (Koizumi et al. (2003) INVEST. OPHTHALMOL. VIS. SCI. 44:2184-2191). Leukocyte adhesion to the retinal vessels was evaluated at 24 hours after EIU induction by using the Concanavalin A (Con A) lectin staining technique (Smith et al. (1994) INVEST. OPHTHALMOL. VIS. SCI. 35:101-111). […] The flatmounts were imaged using an epifluorescence microscope (DM RXA; Leica) and the total number of Con A-stained adherent leukocytes per retina was counted.

In data set [2] the test system is retinal vessels. Briefly: Protein leakage from retinal vessels (biotinylated BSA assay). Particulars: AICAR-pretreated EIU rats, 24 h after LPS; n=8; EIU rats 30.5±21.2. How it is done: Male Lewis rats ranging from 6-8 weeks old (Charles River, Wilmington, Mass.) were used for these studies. To study the effects of AICAR pretreatment, AICAR and PBS (for placebo treatment) were delivered via intraperitoneal injection of AICAR (50 mg/kg or 100 mg/kg body weight; Sigma) diluted in 150 μl PBS or equal volume of PBS at 6 hours before and at the same time as LPS injection. Four experimental groups of rats were compared: (1) Normal: no treatment (2) AICAR: normal rats treated with AICAR 6 hours before examination; (3) LPS: EIU rats treated with PBS; (4) LPS+AICAR: EIU rats treated with AICAR. Two additional groups of rats were used to study the effects of AICAR (50 mg/kg) given either at the same time as LPS injection or at 6 hours after LPS injection. Protein leakage from retinal vessels was assessed with a biotinylated bovine serum albumin (bBSA) assay as previously described (Trichonas et al. (2010) INVEST. OPHTHALMOL. VIS. SCI. 51:1677-1682). At 23 hours after LPS injection, rats were anesthetized and 0.14 ml of 43.7 mg/ml bBSA (Santa-Cruz Biotechnology, Santa Cruz, Calif.) was injected through the femoral vein. After one hour, the chest cavities of rats were opened, and the rats were perfused with lactated Ringer's solution via the left ventricle for 6 minutes. […] Supernatant was collected, and bBSA concentration was measured by enzyme-linked immunosorbent assay (ELISA). […]

Data set [3] relates to CD14. Briefly: CD14 mRNA (real time PCR) and protein (Western blot) in PBMC of EIU rats. Particulars: three hours after LPS. On the procedure: Male Lewis rats ranging from 6-8 weeks old (Charles River, Wilmington, Mass.) were used for these studies. To study the effects of AICAR pretreatment, AICAR and PBS (for placebo treatment) were delivered via intraperitoneal injection of AICAR (50 mg/kg or 100 mg/kg body weight; Sigma) diluted in 150 μl PBS or equal volume of PBS at 6 hours before and at the same time as LPS injection. Four experimental groups of rats were compared: (1) Normal: no treatment (2) AICAR: normal rats treated with AICAR 6 hours before examination; (3) LPS: EIU rats treated with PBS; (4) LPS+AICAR: EIU rats treated with AICAR. Two additional groups of rats were used to study the effects of AICAR (50 mg/kg) given either at the same time as LPS injection or at 6 hours after LPS injection. For preparation of peripheral blood mononuclear cell (PBMC) samples, blood samples were collected at three hours after LPS injection, and PBMC samples were isolated by density gradient centrifugation with Histopaque 1083 (Sigma). The red blood cells were lysed with Red Blood Cell Lysing Buffer (Sigma). For Western blot analysis, pooled PBMCs from three rats were homogenized with lysis buffer (Roche Diagnostics Corp) and centrifuged at 13,000 rpm for 10 minutes at 4° C. […] Quantitative expression data were acquired and analyzed with a Step One Plus real-time PCR system (Applied Biosystems).
In general terms: Real-time PCR tracks product formation cycle by cycle.

The values below come from US10842806B2, “Methods for treating ocular inflammatory disorders” (Massachusetts Eye and Ear Infirmary, priority 2011, dated 2020).

For the compound `NC(=O)c1ncn([C@@H]2O[C@H](CO)[C@@H](O)[C@H]2O)c1N` [AICAR, 5-aminoimidazole-4-carboxamide-1-β-d-ribofuranoside], the “Number of Con A-stained adherent leukocytes per retina” value in data set [1] (AICAR 50 mg/kg pretreatment, 24 h after LPS, n=11, EIU rats 1163±244) is listed as 576±249 cells. In addition, the “Adherent leukocytes in AICAR-only-treated rats” value in data set [1] (normal rats, AICAR only, n=6) is given as “few adherent leukocytes”. Besides, the “Protein leakage from retinal vessels (bBSA)” value in data set [2] is reported as 11.2±7.2 ng/mg total retinal protein. For the same compound, the “CD14 mRNA expression in PBMCs” value in data set [3] (AICAR pretreatment, n=9, EIU 3.8±0.7, normal 0.7±0.3) was 1.7±1.0. Besides, in data set [3] (AICAR-pretreated rats vs EIU rats), the “CD14 protein expression in PBMCs (Western blot)” value was “decreased”.
